{
  "source": "patent US6127349A",
  "about": "“Phospholipid drug derivatives” (Amur Research Corporation, priority 1998, dated 2000)",
  "key": {"[1]": {"experiment": "Partition of tritiated DHEA-phosphocholine reaction product between aqueous phase and benzene (scintillation counting)", "format": "physicochemical", "method": "A dehydroepiandrosterone(DHEA)-phosphocholine derivative was synthesized as follows: 1 mg of phosphocholine (calcium salt; Sigma Chemical, St. Louis, Mo.) was dissolved in 0.5 ml of formamide (Cat # S-7503; Lot # 55HO257; Sigma Chemical) and 0.5 ml of pyridine (Cat # P-4036; Lot # 55H1489; Sigma Chemical). 0.025 mCi of (1,2,6,7 ^3 H(n)-Dehydroepiandrosterone (Cat # NET814; Lot # 3146097; 89.2 Ci/mmol; Dupont, NEN Products, Boston, Mass.) in 0.025 ml of ethanol was added. The reaction was catalyzed by the addition (as the dry solid) of 5 mg of dicyclohexylcarbodiimide (Cat # D-3129; Lot # 34hO647; Sigma Chemical). The reaction mixture was incubated overnight at room temperature. In the morning, 9 ml of water was added and the mixture extracted 3 times with 10 ml portions of benzene. The benzene extracts were combined and aliquots of both phases were counted in a scintillation counter. The results are set forth below:\nThe aqueous layer was re-extracted with benzene. The second benzene extraction yielded 272 cpm (0.01 M1) as a confirmation."}, "[2]": {"system": "cutaneous hypersensitivity immune response", "experiment": "DNCB-induced cutaneous contact hypersensitivity (ear swelling)", "format": "in vivo, mice (Balb/c)", "conditions": "for cutaneous hypersensitivity immune response: 100 μg/day/mouse s.c., twelve days, ears rechallenged with 1% DNCB; for cutaneous hypersensitivity immune response / suppression of the response by dexamethasone: days 7-12; for suppression of the response by dexamethasone: steroid together with dexamethasone", "method": "The effects of DHEA-PC on cutaneous contact hypersensitivity was studied. In this study, mice (Balb/c) were immunologically challenged with DNCB (2 % in ethanol) applied to a 2 cm area on the back. The steroid was injected subcutaneously (100 μg/day/mouse) throughout the twelve-day study period. Ears were rechallenged with DNCB (1% in ethanol) on days 7-12 and swelling was measured daily in order to evaluate the effect on the immune system."}, "[3]": {"conditions": "oral; cited from earlier work"}, "neutral sphingomylenase": {"system": "neutral sphingomylenase", "experiment": "Hydrolysis of DHEA-PC by neutral sphingomyelinase", "format": "biochemical", "method": "(§1) DHEA-phosphocholine (DHEA-PC) was synthesized by sequential reaction of DHEA, choline, and water with phosphorous oxychloride. The synthetic product had the same HPLC retention time and the same mass-spectrum as did the endogenous, actual compound. […] When human serum extracts were analyzed, mass fragments were detected at the same retention time as synthetic material."}, "acidic sphingomylenase": {"system": "acidic sphingomylenase", "experiment": "Hydrolysis of DHEA-PC by acidic sphingomyelinase", "format": "biochemical", "method": "as §1"}, "[4]": {"conditions": "literature; cited from earlier work"}, "[5]": {"conditions": "cited from earlier work"}, "[6]": {"conditions": "oral administration, cited from earlier work"}, "[7]": {"system": "enzyme on lymphocyte cell membrane that cleaves phosphocholine from other compounds", "experiment": "Stimulation of lymphocyte membrane enzyme that cleaves phosphocholine", "format": "biochemical", "conditions": "data not shown"}},
  "data": [
    {"compound": "C[C@]12CC[C@H](O)CC1=CC[C@@H]1[C@@H]2CC[C@]2(C)C(=O)CC[C@@H]12", "note": "[DHEA, dehydroepiandrosterone]", "values": [
      {"measurement": "extraction of free starting material into benzene", "setting": "[1]; water/benzene, expected with this protocol", "result": "extracted quantitatively into benzene"},
      {"measurement": "cutaneous hypersensitivity immune response", "setting": "[2]", "result": "similar, high level response"},
      {"measurement": "suppression of the response by dexamethasone", "setting": "[2]", "result": "not suppressed by dexamethasone"},
      {"measurement": "activity when administered orally", "setting": "[3]", "result": "only limited activity"}
    ]},
    {"compound": "C[C@]12CC[C@H](OP(=O)([O-])OCC[N+](C)(C)C)CC1=CC[C@@H]1[C@@H]2CC[C@]2(C)C(=O)CC[C@@H]12", "note": "[DHEA-PC, DHEA-3-PHOSPHOCHOLINE]", "values": [
      {"measurement": "second benzene extraction radioactivity", "setting": "[1]; 0.01 M1 aliquot, re-extraction of the aqueous layer with benzene", "result": 272, "unit": "cpm"},
      {"measurement": "Aqueous Phase radioactivity", "setting": "[1]; 0.01 ml aliquot, after 3 benzene extractions", "result": "10,729 cpm"},
      {"measurement": "Benzene Phase radioactivity", "setting": "[1]; 0.01 ml aliquot, combined benzene extracts", "result": "1,121 cpm"},
      {"measurement": "phase in which the reaction product is found", "setting": "[1]; water/benzene", "result": "remains in the aqueous phase"},
      {"measurement": "hydrolysis by neutral sphingomylenase", "setting": "neutral sphingomylenase", "result": "hydrolyzed by neutral sphingomylenase"},
      {"measurement": "hydrolysis by acidic sphingomylenase", "setting": "acidic sphingomylenase", "result": "not by acidic sphingomylenase"},
      {"measurement": "cutaneous hypersensitivity immune response", "setting": "[2]", "result": "enhanced the cutaneous hypersensitivity immune response similar to native steroids"},
      {"measurement": "dinitrochlorobenzene-induced sensitization", "setting": "[2]; administered to mice", "result": "potentiated dinitrochlorobenzene-induced sensitization"},
      {"measurement": "suppression of the response by dexamethasone", "setting": "[2]", "result": "not suppressed by dexamethasone"}
    ]},
    {"compound": "C[C@]12CC[C@H](OS(=O)(=O)O)CC1=CC[C@@H]1[C@@H]2CC[C@]2(C)C(=O)CC[C@@H]12", "note": "[DHEA-sulfate]", "values": [
      {"measurement": "cutaneous hypersensitivity immune response", "setting": "[2]", "result": "similar, high level response"},
      {"measurement": "suppression of the response by dexamethasone", "setting": "[2]", "result": "not suppressed by dexamethasone"}
    ]},
    {"compound": "O=C1N(Cc2ccc(CO)cc2)[C@H](Cc2ccccc2)[C@H](O)[C@@H](O)[C@@H](Cc2ccccc2)N1Cc1ccc(CO)cc1", "note": "[DMP-323]", "values": [
      {"measurement": "aqueous solubility", "setting": "[4]", "result": "low aqueous solubility"},
      {"measurement": "bioavailability upon administration to patients", "setting": "[5]", "result": "variability in the compounds bioavailability"},
      {"measurement": "efficacy", "setting": "[5]; patients", "result": "inconsistent efficacy"}
    ]},
    {"compound": "C[C@@H]1C[C@H]2[C@@H]3CCC4=CC(=O)C=C[C@]4(C)[C@@]3(F)[C@@H](O)C[C@]2(C)[C@@]1(O)C(=O)CO", "note": "[dexamethasone]", "values": [
      {"measurement": "immune response with dexamethasone administered by itself", "setting": "[2]; versus control", "result": "suppressed the immune response below the control"}
    ]},
    {"compound": "C[C@]12CC[C@@H]3c4ccc(O)cc4CC[C@H]3[C@@H]1CC[C@@H]2O", "note": "[estradiol]", "values": [
      {"measurement": "activity when administered orally", "setting": "[3]", "result": "only limited activity"}
    ]},
    {"compound": "C[C@]12CC[C@@H](O)C[C@H]1CC[C@@H]1[C@@H]2CC[C@]2(C)C(=O)CC[C@@H]12", "note": "[etiocholanolone]", "values": [
      {"measurement": "activity when administered orally", "setting": "[3]", "result": "only limited activity"},
      {"measurement": "inactivated on each pass through the liver", "setting": "[6]; free compound", "result": "about 99%"},
      {"measurement": "biologically available fraction of the administered drug", "setting": "[6]", "result": "only a fraction of a percent"}
    ]},
    {"compound": "C[C@]12CC[C@H]3[C@@H](CCC4=CC(=O)CC[C@@]43C)[C@@H]1CC[C@@H]2O", "note": "[testosterone]", "values": [
      {"measurement": "activity when administered orally", "setting": "[3]", "result": "only limited activity"}
    ]},
    {"compound": "TGF-α: stimulates lymphocyte membrane enzyme that cleaves phosphocholine", "values": [
      {"measurement": "stimulation of enzyme activity", "setting": "[7]", "result": "ten-fold"}
    ]}
  ]
}
